Columns and labels:
Conditions in all cases: 48 h
P12-Ichikawa [1] = experiment: cell viability relative to DMSO control; higher = less cytotoxic
Method in brief: (§1)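 Leukemia cells (NOMO1 or SEM, 500 cells/well; P12-Ichikawa, 1000 cells/well) were seeded in 5 μl in 1536-well plates after at least four passages of adaptation to each medium. They received library compounds in DMSO by pin dosing, 11 threefold points from 47 μM to 0.79 nM. Luminescence with CellTiter-Glo One was read after 48 h at 37°C. Viability is stated per plate relative to DMSO wells, with cell-free wells as background.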

SEM cells [2] = experiment: as above
Method in brief: as §1

NOMO1 [3] = experiment: AUC of viability dose-response curve (% viability x log10 dose units); higher = less sensitive
Method in brief: (§2)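 Leukemia cells adapted to each medium (500 or 1000 cells/well, 1536-well plates) were exposed to library compounds in DMSO for 48 h at 37°C at 11 threefold doses, 47 μM to 0.79 nM. Luminescence by CellTiter-Glo One was normalised per plate to DMSO and cell-free wells, then fitted with a four-parameter log-logistic curve on log10 dose. Curves above full viability were scaled and quality-control failures removed before area under the curve was integrated by trapezoidal rule.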

P12-Ichikawa [4] = experiment: as above
Method in brief: as §2

SEM cells [5] = experiment: as above
Method in brief: as §2

NOMO1 [6] = experiment: cell viability relative to DMSO control; higher = less cytotoxic
Method in brief: as §1

CCCCCCOC(=O)/N=C(/N)c1ccc(NCc2nc3cc(C(=O)N(CCC(=O)OCC)c4ccccn4)ccc3n2C)cc1
cell viability [%], HPLM + 10% dialyzed FBS
Conditions	P12-Ichikawa [1]	SEM cells [2]
0.000781 µM	114	112
0.00234 µM	130	113
0.00702 µM	122	124
0.0211 µM	131	125
0.0632 µM	109	123
0.19 µM	138	125
0.569 µM	138	129
1.71 µM	125	134
5.12 µM	145	145
15.4 µM	121	137
46.1 µM	106	125

AUC of viability dose-response curve
Conditions	NOMO1 [3]	P12-Ichikawa [4]	SEM cells [5]
HPLM + 10% dialyzed FBS	443	475	448
RPMI 5 mM glucose + 10% FBS	449	465	468
RPMI 5 mM glucose + 10% dialyzed FBS	449	467	475

C=CC(=O)Nc1cccc(Nc2nc(NC3CCC(N(C)C)CC3)nc3c2ncn3C(C)C)c1 (stereo not given)
cell viability [%]
Conditions	NOMO1 [6]	P12-Ichikawa [1]	SEM cells [2]
HPLM + 10% dialyzed FBS, 0.000781 µM	96.7	107	107
HPLM + 10% dialyzed FBS, 0.00234 µM	120	115	106
HPLM + 10% dialyzed FBS, 0.00702 µM	114	112	112
HPLM + 10% dialyzed FBS, 0.0211 µM	94.7	106	112
HPLM + 10% dialyzed FBS, 0.0632 µM	111	112	105
HPLM + 10% dialyzed FBS, 0.19 µM	109	113	95.9
HPLM + 10% dialyzed FBS, 0.569 µM	125	105	81.9
HPLM + 10% dialyzed FBS, 1.71 µM	73.8	85.3	40.6
HPLM + 10% dialyzed FBS, 5.12 µM	7.49	36.7	9.48
HPLM + 10% dialyzed FBS, 15.4 µM	5.11	11.1	4.66
HPLM + 10% dialyzed FBS, 46.1 µM	4.77	5.85	4.5
RPMI 5 mM glucose + 10% FBS, 0.000781 µM	127	115	116
RPMI 5 mM glucose + 10% FBS, 0.00234 µM	111	114	107
RPMI 5 mM glucose + 10% FBS, 0.00702 µM	115	114	101
RPMI 5 mM glucose + 10% FBS, 0.0211 µM	100	112	113
RPMI 5 mM glucose + 10% FBS, 0.0632 µM	103	115	117
RPMI 5 mM glucose + 10% FBS, 0.19 µM	104	112	106
RPMI 5 mM glucose + 10% FBS, 0.569 µM	99.6	107	86.9
RPMI 5 mM glucose + 10% FBS, 1.71 µM	98.2	94.8	70.1
RPMI 5 mM glucose + 10% FBS, 5.12 µM	11.9	28.6	10.8
RPMI 5 mM glucose + 10% FBS, 15.4 µM	5.39	8.46	4.33
RPMI 5 mM glucose + 10% FBS, 46.1 µM	3.68	5.44	3.98
RPMI 5 mM glucose + 10% dialyzed FBS, 0.000781 µM	103	108	105
RPMI 5 mM glucose + 10% dialyzed FBS, 0.00234 µM	98.2	110	111
RPMI 5 mM glucose + 10% dialyzed FBS, 0.00702 µM	103	108	109
RPMI 5 mM glucose + 10% dialyzed FBS, 0.0211 µM	103	116	110
RPMI 5 mM glucose + 10% dialyzed FBS, 0.0632 µM	106	122	115
RPMI 5 mM glucose + 10% dialyzed FBS, 0.19 µM	105	119	107
RPMI 5 mM glucose + 10% dialyzed FBS, 0.569 µM	105	123	82.5
RPMI 5 mM glucose + 10% dialyzed FBS, 1.71 µM	72.9	114	40.9
RPMI 5 mM glucose + 10% dialyzed FBS, 5.12 µM	7.93	35.5	9.22
RPMI 5 mM glucose + 10% dialyzed FBS, 15.4 µM	5.45	11	3.79
RPMI 5 mM glucose + 10% dialyzed FBS, 46.1 µM	4.26	6.55	3.4

AUC of viability dose-response curve
Conditions	NOMO1 [3]	P12-Ichikawa [4]	SEM cells [5]
HPLM + 10% dialyzed FBS	348	366	319
RPMI 5 mM glucose + 10% FBS	361	366	340
RPMI 5 mM glucose + 10% dialyzed FBS	350	377	320

Cc1cncc2cccc([S+](=O)([O-])N3CCCN(C(=O)CN)C[C@@H]3C)c12
SEM cells [2], HPLM + 10% dialyzed FBS
Conditions	cell viability [%]
0.000781 µM	94.8
0.00234 µM	114
0.00702 µM	126
0.0211 µM	124
0.0632 µM	122
0.19 µM	134
0.569 µM	138
1.71 µM	137
5.12 µM	79
15.4 µM	66.7
46.1 µM	39.9

AUC of viability dose-response curve
Conditions	NOMO1 [3]	P12-Ichikawa [4]	SEM cells [5]
HPLM + 10% dialyzed FBS	455	401	419
RPMI 5 mM glucose + 10% FBS	446	401	397
RPMI 5 mM glucose + 10% dialyzed FBS	438	412	392

CC(C)N(CC[C@H](c1ccccc1)c1cc(CO)ccc1O)C(C)C
cell viability [%], HPLM + 10% dialyzed FBS
Conditions	P12-Ichikawa [1]	SEM cells [2]
0.000781 µM	127	106
0.00234 µM	123	118
0.00702 µM	120	125
0.0211 µM	126	141
0.0632 µM	139	131
0.19 µM	137	139
0.569 µM	140	129
1.71 µM	138	134
5.12 µM	129	151
15.4 µM	128	135
46.1 µM	135	119

AUC of viability dose-response curve
Conditions	NOMO1 [3]	P12-Ichikawa [4]	SEM cells [5]
HPLM + 10% dialyzed FBS	455	464	462
RPMI 5 mM glucose + 10% FBS	468	461	473
RPMI 5 mM glucose + 10% dialyzed FBS	462	466	461

— the supplement of paper PMC11451515
